The text below walks through data of patent US10759826B2, “15β-substituted estrone derivatives as selective inhibitors of 17β-hydroxysteroid-dehydrogenases, method of preparation and use thereof” (USTAV ORGANICKE CHEMIE A BIOCHEMIE AV CR, V.V.I., priority 2016, dated 2020).

Broadly, the EC50 is the concentration giving half of the maximal effect. The term IC50 denotes the midpoint of a concentration-inhibition curve.

Format in all cases: cell-based
In test [1] the target is T1, estrogen receptor α (ERα) (Homo sapiens, UniProt P03372).
T1 construct: expressed in transfected cells
T1 sequence (P03372 1-595): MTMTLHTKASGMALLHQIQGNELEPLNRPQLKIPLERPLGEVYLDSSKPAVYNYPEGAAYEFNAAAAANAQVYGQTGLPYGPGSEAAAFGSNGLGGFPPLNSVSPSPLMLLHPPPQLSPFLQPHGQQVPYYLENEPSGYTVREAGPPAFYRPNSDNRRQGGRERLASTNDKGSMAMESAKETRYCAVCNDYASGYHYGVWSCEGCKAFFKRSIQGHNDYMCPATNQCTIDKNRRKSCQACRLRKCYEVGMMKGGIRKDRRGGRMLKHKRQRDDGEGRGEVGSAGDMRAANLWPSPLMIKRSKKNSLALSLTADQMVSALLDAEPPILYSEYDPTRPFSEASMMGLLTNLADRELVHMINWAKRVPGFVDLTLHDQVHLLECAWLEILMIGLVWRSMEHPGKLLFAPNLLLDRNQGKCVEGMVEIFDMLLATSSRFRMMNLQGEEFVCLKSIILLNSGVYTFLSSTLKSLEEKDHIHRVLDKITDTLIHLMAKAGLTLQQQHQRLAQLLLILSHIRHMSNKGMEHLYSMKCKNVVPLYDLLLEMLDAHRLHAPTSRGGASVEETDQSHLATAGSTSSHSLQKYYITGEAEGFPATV
The test can be described thus: ERα luciferase reporter assay in U2OS cells. The conditions noted are these: for Emax: U2OS, read-out: efficacy of ERα activation, % of the maximal effect produced by E2; for EC50: agonist mode, U2OS reporter, 24 h; for IC50: antagonist mode, 1 nmol·l^−1 E2.

A further test concerns the target T2, androgen receptor (AR) (Homo sapiens, UniProt P10275).
T2 construct: expressed in transfected cells
T2 sequence (P10275 1-920): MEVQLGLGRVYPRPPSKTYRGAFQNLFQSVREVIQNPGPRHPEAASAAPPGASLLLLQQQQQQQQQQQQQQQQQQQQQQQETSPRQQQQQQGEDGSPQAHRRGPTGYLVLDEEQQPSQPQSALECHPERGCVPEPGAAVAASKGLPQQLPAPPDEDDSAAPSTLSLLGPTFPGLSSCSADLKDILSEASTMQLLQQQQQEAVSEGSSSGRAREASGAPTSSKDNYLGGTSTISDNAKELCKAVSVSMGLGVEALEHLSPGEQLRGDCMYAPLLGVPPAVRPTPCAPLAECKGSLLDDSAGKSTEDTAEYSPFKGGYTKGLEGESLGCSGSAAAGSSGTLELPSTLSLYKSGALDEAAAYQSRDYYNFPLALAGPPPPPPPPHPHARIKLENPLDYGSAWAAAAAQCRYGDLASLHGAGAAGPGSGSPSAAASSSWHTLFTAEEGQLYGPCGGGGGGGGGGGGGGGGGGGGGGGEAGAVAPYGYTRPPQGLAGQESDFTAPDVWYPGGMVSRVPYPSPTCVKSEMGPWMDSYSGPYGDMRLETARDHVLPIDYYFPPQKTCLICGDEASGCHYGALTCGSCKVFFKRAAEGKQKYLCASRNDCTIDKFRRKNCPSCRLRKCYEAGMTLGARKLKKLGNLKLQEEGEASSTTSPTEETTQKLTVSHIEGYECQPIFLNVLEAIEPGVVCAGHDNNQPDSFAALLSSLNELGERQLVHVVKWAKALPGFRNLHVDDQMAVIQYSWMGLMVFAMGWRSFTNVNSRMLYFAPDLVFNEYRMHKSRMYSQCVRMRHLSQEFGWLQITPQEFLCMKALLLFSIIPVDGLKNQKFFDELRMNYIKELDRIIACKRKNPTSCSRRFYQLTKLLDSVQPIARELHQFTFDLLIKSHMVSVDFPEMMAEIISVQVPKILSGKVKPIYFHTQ
The test can be described thus: AR luciferase reporter assay in U2OS cells. Conditions: for AR antagonism in words: testing range 10 μmol·l^−1 to 1 nmol·l^−1.

A further test deals with MRCS. The experiment in a line: MTT cytotoxicity assay, MRC5 fibroblasts. Conditions: Homo sapiens, Fibroblast, non-tumor fibroblasts. The text has this:
Compounds 5, 6, 7, 9, 14 and 15 were used for evaluation of antitumor activity. MTT cytotoxicity assay was used in vitro on cell lines derived from normal tissues and from tumors. Specifically, these were the K562 line (human myeloid leukemia), K562-Tax (human myeloid leukemia resistant to taxol and overexpressing PgP protein for multidrug resistance), CEM (T-lymphoblastic leukemia), CEM-DNR bulk (T-lymphoblastic leukemia resistant doxorubicin, lacking the expression of the target gene for inhibitors of topoisomerase II alpha), A549 line (human lung adenocarcinoma), HCT116p53 wt (human colon cancer), HCT116p53−/− (human colon cancer, mutant p53), U2OS line of human osteosarcoma and two fibroblast lines MRC5 and BJ as examples of non-tumor cells. Expression characteristics, profiles of susceptibility to classical antitumor drugs and methodology of the MTT cytotoxicity assay were repeatedly published (e.g. Noskova et al. Neoplasma 2002, 49, 418; S̆arek et. al. J. Med. Chem. 2003, 46, 25, 5402).

Another test concerns MDA-MB-231. The experiment in a line: 7 day proliferation assay, MDA-MB-231. The conditions noted are these: 1 μmol·l^−1, 7 days. How it is done: (§1) In this study, T47D cells were propagated in RPMI 1640 medium supplemented with 10% fetal bovine serum, 2 mmol^·l^−1 glutaMAX (Thermo Fisher Scientific, MA, USA), and penicillin/streptomycin (Thermo Fisher Scientific, Waltham, USA) and incubated in a 5% CO2-humidified atmosphere at 37° C. to the amount needed for the experiment. Two days prior to testing of compounds, growth medium was changed to medium without phenol red, supplemented with 2 mmol^·l^−1 Glutamax and 4% FBS depleted of lipophilic components (including the endogenous estrogenic substances) (Hyclone, GE Healthcare Life Sciences, USA). Two days after the medium replacement, the cells were harvested, counted and resuspended in a medium. Cells were dispensed with liquid dispenser Multidrop (Thermo Fisher Scientific, Waltham, USA), to the cell culture treated, 12-well plates (Corning Inc., NY, USA) at 100 000 cells/well in 1 mL of total media volume. […] After 7 days of cell cultivation with compounds, cells were harvested and counted. […]
(§2) Compounds 9 and 12 were tested in the proliferation assay with cell lines derived from the triple negative breast cancer (MDA-MB-231), AR-negative prostate cancer (PC3, DU145) and ovarian cancer (SK-OV-3, CaoV-3). […] At the end of the treatment, cells were harvested and counted. […]

The subject of a further test is SK-OV-3. The test can be described thus: 7 day proliferation assay, SK-OV-3. Conditions: 1 μmol·l^−1, 7 days. How it is done:
as §1, §2

Consider `COc1ccc(CC[C@@H]2CC(=O)[C@@]3(C)CC[C@@H]4c5ccc(O)cc5CC[C@H]4[C@H]23)cc1` [Compound 9, 3-Hydroxy-15β-(4-methoxyphenethyl)-estra-1,3,5 (10)-trien-17-one], for which, in test [1], the Emax is under 40%; the EC50 was over 10 µM; the midpoint of inhibition, the IC50, lay at 23.5 µM. Besides, on androgen receptor (AR), the “AR antagonism in words” value is “AR antagonist”. In addition, the IC50 in the test on MRCS is over 50 µM. In the test on MDA-MB-231, the “% of survived cells compared to untreated samples, MDA-MB-231” value worked out at 106%. Moreover, the “% of survived cells compared to untreated samples, SK-OV-3” value with SK-OV-3 was determined as 113%.
As for `CCOc1ccc(CC[C@@H]2CC(=O)[C@@]3(C)CC[C@@H]4c5ccc(O)cc5CC[C@H]4[C@H]23)cc1` [Compound 12, 15β-(4-Ethoxyphenethyl)-3-hydroxy-estra-1,3,5(10)-trien-17-one], in test [1], the Emax was under 40%, the EC50 was over 10 µM and half-maximal inhibition (IC50) was put at 29 µM. Further, the “ER antagonism in words” value in test [1] (testing range 10 μmol·l^−1 to 1 nmol·l^−1) was “antagonists of both types of receptors”. For the same compound, the IC50 on androgen receptor (AR) (antagonist mode, 1 nmol·l^−1 DHT) worked out at 89.1 µM. Also, the “AR antagonism in words” value on androgen receptor (AR) was “antagonists of both types of receptors”. Moreover, in the test with MDA-MB-231, the “% of survived cells compared to untreated samples, MDA-MB-231” value is on record as 98%. The “% of survived cells compared to untreated samples, SK-OV-3” value in the test with SK-OV-3 came to 97%.
